{
  "source": "EPA's ToxRefDB 2",
  "key": {"rat [1]": {"tested_on": "rat", "conditions": "Prenatal developmental toxicity study, sprague dawley, Dermal, Topical, dose end: 15 GD"}, "rabbit": {"tested_on": "rabbit", "conditions": "Prenatal developmental toxicity study, himalayan, Dermal, Topical, dose end: 18 GD"}, "rat [2]": {"tested_on": "rat", "conditions": "Prenatal developmental toxicity study; long evans; Inhalation; Whole-Body; dose end: 15 GD; group: developmental; systemic / in life observation / body weight / fetal weight"}, "[3]": {"conditions": "group: developmental, developmental / developmental malformation / general / [other] + developmental / developmental malformation / general / crown-rump length"}, "[4]": {"conditions": "group: maternal, systemic / organ weight / placenta / absolute"}, "[5]": {"conditions": "group: maternal, systemic / organ weight / placenta / absolute + systemic / in life observation / body weight / body weight gain + systemic / in life …"}, "[6]": {"conditions": "group: developmental, developmental / developmental malformation / general / [other]"}, "[7]": {"conditions": "group: maternal, systemic / in life observation / body weight / body weight + systemic / in life observation / clinical signs / skin ulceration"}},
  "data": [
    {"smiles": "CN(C)C=O", "note": "[N,N-Dimethylformamide]", "values": [
      {"measurement": "LEL", "setting": "rat [1]; [3]", "result": 944, "unit": "mg/kg/day"},
      {"measurement": "LOAEL", "setting": "rat [1]; [3]", "result": "> 944", "unit": "mg/kg/day"},
      {"measurement": "NEL", "setting": "rat [1]; [3]", "result": 472, "unit": "mg/kg/day"},
      {"measurement": "NOAEL", "setting": "rat [1]; [3]", "result": "≥ 944", "unit": "mg/kg/day"},
      {"measurement": "LEL", "setting": "rat [1]; [4]", "result": 94, "unit": "mg/kg/day"},
      {"measurement": "NEL", "setting": "rat [1]; [4]", "result": "< 94", "unit": "mg/kg/day"},
      {"measurement": "LOAEL", "setting": "rat [1]; [5]", "result": "> 944", "unit": "mg/kg/day"},
      {"measurement": "NOAEL", "setting": "rat [1]; [5]", "result": "≥ 944", "unit": "mg/kg/day"},
      {"measurement": "LEL", "setting": "rabbit; [6]", "result": 400, "unit": "mg/kg/day"},
      {"measurement": "LOAEL", "setting": "rabbit; [6]", "result": "> 400", "unit": "mg/kg/day"},
      {"measurement": "NEL", "setting": "rabbit; [6]", "result": 200, "unit": "mg/kg/day"},
      {"measurement": "NOAEL", "setting": "rabbit; [6]", "result": "≥ 400", "unit": "mg/kg/day"},
      {"measurement": "LEL", "setting": "rabbit; [7]", "result": 400, "unit": "mg/kg/day"},
      {"measurement": "LOAEL", "setting": "rabbit; [7]", "result": "> 400", "unit": "mg/kg/day"},
      {"measurement": "NEL", "setting": "rabbit; [7]", "result": 200, "unit": "mg/kg/day"},
      {"measurement": "NOAEL", "setting": "rabbit; [7]", "result": "≥ 400", "unit": "mg/kg/day"},
      {"measurement": "LEL", "setting": "rat [2]", "result": 172, "unit": "ppm"},
      {"measurement": "LOAEL", "setting": "rat [2]", "result": "> 172", "unit": "ppm"},
      {"measurement": "NEL", "setting": "rat [2]", "result": 18, "unit": "ppm"},
      {"measurement": "NOAEL", "setting": "rat [2]", "result": "≥ 172", "unit": "ppm"}
    ]}
  ]
}
